Laboratory results published in patent US20230061352A1, “DRUG DELIVERY DEVICE” (priority 2020, published 2023).
“Also recorded” adds a separate entry of the source.

Columns and labels:
[1] = Qualitative sample analysis (Q1 test) of released drug by LCMS; assay type: physicochemical; details: drug released from the device; chromatograms, FIGS. 7 and 8
Protocol: Qualitative sample analysis (or Q1 test) was performed on select samples to assure single spikes were detected at frequencies consistent with calibration curves and that no secondary spikes were detected (indicating LCMS detection of single molecules without breakdown products).

[2] = LCMS drug levels in porcine lymph tissue from the anterior jugular chain; assay type: in vivo, pig; details: released from implanted device; necropsy at 0, 48, 120, 240 and 336 hrs; FIGS. 12 and 13
Description: (§1) Devices produced in accordance with the methods of EXAMPLE 1 were implanted into tonsillectomized pigs.
(§2) The specific LCMS method used for detection of Bupivacaine and Lidocaine has been validated in work by Hoizey et al (2005) (Hoizey G, et al. Sensitive bioassay of bupivacaine in human plasma by liquid-chromatography-ion trap mass spectrometry. Journal of pharmaceutical and biomedical analysis. 2005; 39:587-92).
(§3) The specific LCMS method used for detection of Bupivacaine and Lidocaine has been validated in work by Hoizey et al (2005).

[3] = LCMS drug levels in porcine serum from the internal jugular vein; assay type: in vivo, pig; details: released from implanted device; 0, 1, 2, 4, 24, 48, 72, 120, 240, 336 hrs; FIGS. 14 and 15
Description: as §1, §2, §3

SMILES	integrity of the released drug molecule (no breakdown products) [1]	drug level detected in locoregional (lymph) tissue [2] [microgram per ml]	drug level detected in serum (systemic uptake) [3] [microgram per ml]
CCCCN1CCCCC1C(=O)Nc1c(C)cccc1C (centres unmarked) [bupivacaine]	active form is preserved; also recorded: complete, intact bupivacaine molecule	< 4	< 4
CCN(CC)CC(=O)Nc1c(C)cccc1C [lignocaine]	active form is preserved; also recorded: complete, intact lignocaine molecule	< 5.6	–
